# Results taken from publication PMC2653597 (Journal of chromatography. A, 2008).
# Columns and labels:
# [1] = target: immobilized human recombinant butyrylcholinesterase (rBChE) (Homo sapiens, UniProt P06276); experiment: rBChE-IMER on-line carbamoylation/decarbamoylation kinetics; type: biochemical; settings: immobilized enzyme, 30 °C, flow rate 1.0 mL/min
# [2] = target: human recombinant BChE (rBChE) in solution (Homo sapiens, UniProt P06276); experiment: in solution stopped time assay for carbamoylation constants; type: biochemical; settings: enzyme in solution, classical Ellman's assay
# human recombinant BChE (rBChE) in solution, sequence (P06276 29-602): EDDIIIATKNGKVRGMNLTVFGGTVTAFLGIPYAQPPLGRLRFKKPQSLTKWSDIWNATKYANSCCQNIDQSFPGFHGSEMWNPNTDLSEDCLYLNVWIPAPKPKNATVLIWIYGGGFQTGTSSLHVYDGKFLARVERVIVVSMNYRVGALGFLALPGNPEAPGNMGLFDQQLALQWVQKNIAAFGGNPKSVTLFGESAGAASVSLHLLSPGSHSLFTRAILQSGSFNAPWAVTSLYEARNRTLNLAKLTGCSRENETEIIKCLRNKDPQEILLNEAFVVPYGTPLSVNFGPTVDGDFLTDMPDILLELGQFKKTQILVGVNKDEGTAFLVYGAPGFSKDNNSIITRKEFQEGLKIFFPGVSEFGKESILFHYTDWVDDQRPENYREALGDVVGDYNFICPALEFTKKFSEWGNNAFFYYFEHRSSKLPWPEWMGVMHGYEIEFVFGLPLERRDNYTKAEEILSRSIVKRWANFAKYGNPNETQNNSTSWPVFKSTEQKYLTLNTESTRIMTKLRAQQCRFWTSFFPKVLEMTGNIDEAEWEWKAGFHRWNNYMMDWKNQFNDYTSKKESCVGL
# immobilized human recombinant butyrylcholinesterase (rBChE), sequence (P06276 29-602): as above
SMILES,"carbamoylation constant k2, rBChE-IMER [1]","carbamoylation constant k2, rBChE in solution [2]"
CC(C)c1ccc(NC(=O)Oc2ccc3c(c2)[C@]2(C)CCN[C@@H]2N3)cc1 [(-)-Bisnorcymserine],0.081 ± 0.004 min⁻¹,0.573 ± 0.068 min⁻¹
CC(C)Cc1ccc(NC(=O)Oc2ccc3c(c2)[C@]2(C)CCN[C@@H]2N3)cc1 [(-)-Isobutylbisnorcymserine],0.049 ± 0.002 min⁻¹,0.634 ± 0.022 min⁻¹
"CN1CC[C@@]2(C)c3cc(OC(=O)Nc4ccccc4)ccc3N(C)[C@@H]12 [(-)-Phenserine, 3aS-(-)-phenylcarbamoyleseroline]",0.486 ± 0.037 min⁻¹,3.094 ± 0.536 min⁻¹
"CNC(=O)Oc1ccc2c(c1)[C@]1(C)CCN(C)[C@@H]1N2C [(-)-Physostigmine, (-)-physostigmine, reference compound]",0.161 ± 0.025 min⁻¹,0.479 ± 0.070 min⁻¹
